Measurements from US9315527B2, “Synthesis and applications of peripherally asymmetric aryl POSS compounds” (The United States of America as Represented by the …, priority 2011, dated 2016).
Converted amounts (≈) assume the structure as drawn.

Experiments:
[1] = Solubility of aromatic POSS compounds in organic solvents by visual measurements; assay type: physicochemical; settings: visual measurement; for Solubility in CHCl3: chloroform; for Solubility in DMF: dimethyl formamide; for Solubility in PE: phenyl ether; for Solubility in THF: tetrahydrofuran; for Solubility in Tol: toluene
Protocol: The influence of the prescribed peripheral asymmetry of these compounds on solubility was determined by visual measurements in five organic solvents, including chloroform (CHCl3), tetrahydrofuran (THF), phenyl ether (PE), toluene (Tol), and dimethyl formamide (DMF), summarized in Table 1.
The substitution of a single polycyclic aromatic ring on the POSS cage improves solubility substantially in most cases. However, it is difficult to predict the influence of each aromatic group on the observed solubility, as well as in which solvent the solubility will be affected. Modification with a 1-naphthyl group to produce (1-naphthyl)-phenyl7Si8O12 (3) results in solubility in CHCl3 and THF exceeding 100 mg/mL and the observance of more finite solubility in the other investigated solvents. Modification with a 2-naphthyl group to produce (2-naphthyl)phenyl7Si8O12 (4) increases solubility in PE and DMF, but reduces solubility in THF and CHCl3, when compared to (1-naphthyl)-phenyl7Si8O12 (3).

[2] = Phase behavior of POSS in polyetherimide (Ultem 1000, PEI): chloroform solutions and drop cast annealed films; assay type: physicochemical; settings: for Appearance of chloroform solution containing PEI and POSS: 5 weight percent PEI in chloroform, POSS 5 weight percent with respect to PEI
Protocol: To examine the phase behavior of this new class of peripherally-asymmetric POSS nanoparticles with a representative aromatic polymer, attempts were made to solubilize both phenyl8Si8O12 and (1-naphthyl)phenyl7Si8O12 in polyetherimide (Ultem 1000, PEI). Chloroform solutions were prepared at a solute concentration of 5 weight percent PEI and POSS concentration of 5 weight percent with respect to PEI. Subsequent films from these solutions were drop cast onto glass substrates, dried under vacuum, and annealed at 220° C., above the glass transition temperature of PEI, to promote equilibrium phase formation.
Qualitatively, the dried and annealed films were visually observed to be of contrasting appearance.

[3] = chloroform, benchmark; cited from earlier work

Row | Compound | Solubility in CHCl3 [1] [mg/mL] | Solubility in DMF [1] [mg/mL] | Solubility in PE [1] | Solubility in THF [1] [mg/mL] | Solubility in Tol [1] | Appearance of chloroform solution containing PEI and POSS [2] | Phase separation length scale in PEI film ([2]; drop cast film, annealed at 220° C., microscopy) | Visual appearance of dried and annealed PEI film ([2]; drop cast film, annealed at 220° C.) | Length scale of aggregated particles in PEI film ([2]; drop cast film, annealed at 220° C., microscopy, some regions) | Solubility in CHCl3 (previously documented) [3]
1 | (1-pyrenyl)phenyl7Si8O12 [Compound 6] | 7 | 5 | 4 mg/mL | 10 | 5 mg/mL |  |  |  |  | 
2 | (1-naphthyl)-phenyl7Si8O12 [Compound 3] |  | 24 | 15 mg/mL |  | ^a (Insoluble.) | transparent | less than 5 microns |  |  | 
3 | (9-phenanthrenyl)-phenyl7Si8O12 [Compound 5] | 52 | 57 | 25 mg/mL | 117 | 27 mg/mL |  |  |  |  | 
4 | c1ccc([Si]23O[Si]4(c5ccccc5)O[Si]5(c6ccccc6)O[Si](c6ccccc6)(O2)O[Si]2(c6ccccc6)O[Si](c6ccccc6)(O3)O[Si](c3ccccc3)(O4)O[Si](c3ccccc3)(O5)O2)cc1 [Compound 2, phenyl8Si8O12] | 1 (≈ 968 µM) |  | ^a (Insoluble.) |  | ^a (Insoluble.) | cloudy |  | significantly more opaque | greater than 1 mm | about 1 mg/mL
5 | (2-naphthyl)phenyl7Si8O12 [Compound 4] | 55 | 35 | 53 mg/mL | 28 | ^a (Insoluble.) |  |  |  |  | 
